# Active and inactive are the calls of the source. The calls are words filed in the database; no cut-off is given here.
# How the values were obtained:
# Format in all cases: cell-based
# [1] = biological target: T1, Peroxisome proliferator-activated receptor alpha (Homo sapiens) (UniProt Q07869); assay: Transactivation of GAL4-fused human PPARalpha expressed in COS7 cells assessed as efficacy at 10 uM incubated for 24 hrs by luciferase reporter gene assay relative to WY-14643
# T1 sequence (whole entry): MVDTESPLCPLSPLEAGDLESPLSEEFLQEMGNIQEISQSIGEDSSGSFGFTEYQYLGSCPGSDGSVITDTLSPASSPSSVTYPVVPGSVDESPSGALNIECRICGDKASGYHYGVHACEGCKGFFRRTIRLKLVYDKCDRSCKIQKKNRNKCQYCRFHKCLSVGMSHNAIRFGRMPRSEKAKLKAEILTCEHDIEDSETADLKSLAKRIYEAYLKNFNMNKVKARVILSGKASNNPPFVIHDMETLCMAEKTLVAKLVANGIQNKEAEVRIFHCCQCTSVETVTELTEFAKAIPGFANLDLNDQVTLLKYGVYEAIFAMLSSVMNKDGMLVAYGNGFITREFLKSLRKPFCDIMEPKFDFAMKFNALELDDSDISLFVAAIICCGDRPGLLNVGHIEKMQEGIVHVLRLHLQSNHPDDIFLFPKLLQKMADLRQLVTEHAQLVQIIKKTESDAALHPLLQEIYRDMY
# [2] = biological target: T1, Peroxisome proliferator-activated receptor alpha (Homo sapiens); assay: Agonist activity at GAL4-fused human PPARalpha expressed in COS7 cells incubated for 24 hrs by luciferase reporter gene assay
# [3] = biological target: T2, Peroxisome proliferator-activated receptor gamma (Homo sapiens) (UniProt P37231); assay: Transactivation of GAL4-fused human PPARgamma expressed in COS7 cells assessed as efficacy at 10 uM incubated for 24 hrs by luciferase reporter gene assay relative to rosiglitazone
# T2 sequence (whole entry): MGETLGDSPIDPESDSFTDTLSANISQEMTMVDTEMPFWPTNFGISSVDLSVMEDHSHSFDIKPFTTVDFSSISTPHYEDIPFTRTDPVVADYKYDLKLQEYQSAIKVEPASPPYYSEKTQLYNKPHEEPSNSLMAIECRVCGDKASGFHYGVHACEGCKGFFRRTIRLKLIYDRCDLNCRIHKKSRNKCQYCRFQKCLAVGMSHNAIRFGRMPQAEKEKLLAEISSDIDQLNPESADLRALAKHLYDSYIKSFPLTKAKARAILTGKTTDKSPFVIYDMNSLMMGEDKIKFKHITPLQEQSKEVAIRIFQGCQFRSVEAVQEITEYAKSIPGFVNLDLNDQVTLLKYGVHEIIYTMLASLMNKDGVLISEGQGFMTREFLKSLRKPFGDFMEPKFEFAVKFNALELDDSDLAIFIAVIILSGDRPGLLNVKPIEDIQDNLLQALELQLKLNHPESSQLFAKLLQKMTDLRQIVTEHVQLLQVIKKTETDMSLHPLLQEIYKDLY
# [4] = biological target: T2, Peroxisome proliferator-activated receptor gamma (Homo sapiens); assay: Agonist activity at GAL4-fused human PPARgamma expressed in COS7 cells incubated for 24 hrs by luciferase reporter gene assay
SMILES,Efficacy [1],Activity [2],Efficacy [3],Activity [4]
CCOC(=O)CCC1(C)CC(=O)c2cc(O)ccc2O1 (centres undefined),16%,Active,inactive,
CC(C)(O)CCC1(C)CC(=O)c2cc(O)ccc2O1 (centres undefined),23%,Active,inactive,
CCCCCC1(C)CC(O)c2cc(O)ccc2O1 (centres undefined),,inactive,,inactive
CCCCCC1(C)CC(=O)c2c(ccc(O)c2Cl)O1 (centres undefined),inactive,,30%,Active
CC(=O)Oc1ccc2c(c1)C(=O)CC(C)(CCC(C)OC(C)=O)O2 (centres undefined),40%,Active,inactive,
COC(=O)CCC1(C)CCc2cc(O)ccc2O1 (centres undefined),33%,Active,inactive,
CC1(CCC(=O)O)CCc2cc(O)ccc2O1 (centres undefined),21%,Active,inactive,
Cc1cccc(Nc2cc(Cl)nc(SCC(=O)O)n2)c1C,,,inactive,
C=C(C)CCC1(C)CCc2cc(O)ccc2O1 (centres undefined),35%,Active,inactive,
CC(O)CCC1(C)CC(=O)c2cc(O)ccc2O1 (centres undefined),23%,Active,inactive,
CC(C)=CCCC1(C)CC(O)c2cc(O)ccc2O1 (centres undefined),,inactive,,inactive

# — ChEMBL document CHEMBL4406903, “Synthesis of benzopyran derivatives as PPARα and/or PPARγ activators” (Bioorg Med Chem, 2019)
